Assay [1] relates to IL-2-induced IFN-γ production. Nature of the assay: IL-2-Induced IFN-γ Production in the Mouse. To be noted: po, 1 h, 30 mg/kg by gavage one hour before IL-2, serum IFN-γ, female BALB/c mice, read-out: inhibition of IL-2-induced IFN-gamma production. In kind it is in vivo. How it is done:
Administration of IL-2 leads to an increase in serum IFN-γ in the mouse due to NK secretion of the cytokine (Thornton S, Kuhn K A, Finkelman F D and Hirsch R. NK cells secrete high levels of IFN-γ in response to in vivo administration of IL-2. Eur J Immunol 2001 31:3355-3360). The experiment was carried out essentially according to the protocol in Thornton et al. and the test compounds were administered in order to determine the level of inhibition attained. In summary, female BALB/c mice were fasted for 12-18 hours before a study but had free access to water at all times. Test compounds were administered by gavage one hour before intraperitoneal injection of IL-2 and capture antibody. At termination of the studies, the mice were sacrificed by carbon dioxide inhalation, terminal blood samples were collected by cardiac puncture and serum was generated. Serum was stored frozen until it was assayed for IFN-γ, as described by the kit manufacturer (BD Pharmingen™, San Diego, Calif.).

In another assay the target is T1, Human Jak3 (Homo sapiens, UniProt P52333).
T1 construct: A fragment encoding the catalytic domain of Jak3 (508aa to 1124aa) was ligated with GST at 5′ end; made in house; host or cells: Sf9 insect cells (baculovirus, pFastBac 1)
T1 sequence (P52333 508-1124): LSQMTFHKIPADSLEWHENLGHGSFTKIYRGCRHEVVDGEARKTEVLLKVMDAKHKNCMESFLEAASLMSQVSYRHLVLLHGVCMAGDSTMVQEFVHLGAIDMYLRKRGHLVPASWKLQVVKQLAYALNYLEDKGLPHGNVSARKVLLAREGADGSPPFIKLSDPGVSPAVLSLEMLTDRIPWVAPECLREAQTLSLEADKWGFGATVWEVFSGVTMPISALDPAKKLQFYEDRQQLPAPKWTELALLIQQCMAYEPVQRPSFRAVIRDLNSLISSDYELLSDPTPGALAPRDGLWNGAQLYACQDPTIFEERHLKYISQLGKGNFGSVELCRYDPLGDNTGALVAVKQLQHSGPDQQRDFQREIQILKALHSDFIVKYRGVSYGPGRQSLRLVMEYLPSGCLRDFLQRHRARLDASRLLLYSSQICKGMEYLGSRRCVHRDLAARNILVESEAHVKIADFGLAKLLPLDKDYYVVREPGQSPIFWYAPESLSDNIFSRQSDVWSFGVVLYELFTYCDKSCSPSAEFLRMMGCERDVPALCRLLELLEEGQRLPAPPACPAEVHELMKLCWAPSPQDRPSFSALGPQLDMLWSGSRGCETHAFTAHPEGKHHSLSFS
Nature of the assay: Jak3 Kinase Assay (HTRF, GST-Jak3 catalytic domain). In kind it is biochemical. To be noted: for IC50: (R) and (S) enantiomer pair. As for the experimental part: Human Jak3 cDNA was amplified by PCR. A fragment encoding the catalytic domain of Jak3 (508aa to 1124aa) was ligated with GST at 5′ end. This fused GST-Jak3 DNA fragment was cloned into the EcoRI site of the donor plasmid pFastBac 1 (Life Technologies #10359-016). The transformation, transposition, and transfection of insect cells (Sf9) were performed according to the manufacture's instructions. The cell lysate containing recombinant GST-Jak3 was used in the kinase assay. Anti-GST antibody (10 μg/ml, Sigma #G1417) was coated onto a 384-well plate at 4° C. overnight. Cell lysate containing GST-Jak3 (1:100 dilution) was added to the anti-GST coated plates, and GST-Jak3 was captured by immobilized anti-GST antibody. Testing compounds and substrate mix (50 mM HEPES, pH 7, 0.5 mM Na3VO4, 25 mM MgCl2, 1 mM DTT, 0.005% BSA, 1 μM ATP, and 4.5 μg/ml biotinyl poly-Glu,Ala,Tyr) were added to the plate to initiate the reaction. After a 60-min incubation, the reaction was stopped by 4 mM EDTA, and phosphorylation of biotinyl poly-Glu,Ala,Tyr was detected using 17 μg/ml Cy5-streptavidin (Amersham, #PA92005) and 2.7 μg/ml Europium-conjugated anti-phosphotyrosine antibody (PerkinElmer #AD0069) using homogeneous time-resolved fluorescence (HTRF) technology.
On the technique in general: TR-FRET usually uses a lanthanide donor and a delayed reading to cut background.

Each structure is given as a SMILES string.

Broadly, the inhibition is the drop in the measured response relative to a control, in per cent. What is called IC50 is the point on the concentration scale where inhibition reaches its midpoint. Read a low IC50 as greater potency in that assay.

Take `O=c1[nH]c2cnc(-n3cnc4ccccc43)nc2n1[C@@H]1CCOc2c(F)cccc21` [Example 114]: the inhibition at 30 mg/kg in assay [1] was more than 40%.

With `O=c1[nH]c2cnc(-n3cnc4ccccc43)nc2n1C1CCOc2c(F)cc(F)cc21` (stereo not shown) [Example 151], in assay [1], the inhibition at 30 mg/kg is more than 40%.

In the case of `C[C@H](c1cccnc1)n1c(=O)[nH]c2cnc(-n3cnc4ccccc43)nc21` [Example 120], the inhibition at 30 mg/kg in assay [1] was more than 40%.

For the molecule `O=c1[nH]c2cnc(-n3cnc4ccccc43)nc2n1[C@H]1CCOc2c(F)cc(F)cc21`, the IC50 on Human Jak3 was less than 1000 nM.

`O=c1[nH]c2cnc(-n3cnc4ccccc43)nc2n1[C@@H]1CCOc2c(F)cc(F)cc21` had an IC50 against Human Jak3 of less than 1000 nM. At Human Jak3 ((R) versus (S) enantiomer), the “Jak3 potency relative to the other enantiomer” value is listed as “more potent than its corresponding (S) enantiomer”.

Consider `O=C1CCC(n2c(=O)[nH]c3cnc(-n4cnc5ccccc54)nc32)c2ccccc21` (stereo not shown) [Example 135], for which the inhibition at 30 mg/kg in assay [1] was more than 40%.

As to `O=c1[nH]c2cnc(-n3cnc4ccc(F)cc43)nc2n1C1CCOc2c(F)cccc21` (stereo not shown) [Example 142], the inhibition at 30 mg/kg in assay [1] was more than 40%.

Turning to `O=c1[nH]c2cnc(-n3cnc4ccccc43)nc2n1C1CCOc2c(F)ccc(F)c21` (stereo not shown) [Example 162], the inhibition at 30 mg/kg in assay [1] was more than 40%.

Take `C[C@@H]1CCN(C(=O)CC#N)C[C@@H]1N(C)c1ncnc2[nH]ccc12` [CP690550, reference compound]: in assay [1], the inhibition at 30 mg/kg was 96%.

The values above are taken from patent publication US7884109B2, “Purine and imidazopyridine derivatives for immunosuppression” (Wyeth LLC, priority 2005, dated 2011).
